From the NIST ThermoML archive (doi:10.1016/j.jct.2011.05.030)

Legend:
[1] = Crystal; for vapor or sublimation pressure: Calculated from knudsen effusion weight loss; for Normal melting temperature: DTA
[2] = Molar enthalpy of transition or fusion; conditions: Crystal; DSC

c1ccc2c(c1)-c1cccc3c1c-2cc1ccccc13 [benz[e]acephenanthrylene]
[1]
Conditions	vapor or sublimation pressure [kPa]
364.1 K	4.7e-06
369.3 K	8.12e-06
374.2 K	1.46e-05
377.2 K	1.9e-05
379.2 K	2.41e-05
382.2 K	3.21e-05
384.2 K	3.95e-05
387.2 K	5.4e-05
389.1 K	6.22e-05
392.1 K	8.51e-05
394.2 K	0.000101
397.1 K	0.000131
399.1 K	0.000159
404.1 K	0.00023
409 K	0.000356
414.1 K	0.000533

Conditions	Molar enthalpy of transition or fusion [kcal/mol]	Normal melting temperature [°C]
[1]	–	168.00
[2]	4.37	–

c1cc2ccc3ccc4ccc5cccc6c(c1)c2c3c4c56 [benzo[ghi]perylene]
[1]
Conditions	vapor or sublimation pressure [kPa]
399.1 K	4.16e-06
404 K	7e-06
409 K	1.15e-05
414.4 K	1.79e-05
419 K	2.83e-05
424 K	4.36e-05
429 K	6.54e-05
434.1 K	0.000104
439 K	0.000138
441 K	0.000207
449.1 K	0.000303
454.1 K	0.000432

Conditions	Molar enthalpy of transition or fusion [kcal/mol]	Normal melting temperature [°C]
[1]	–	272.50
[2]	3.9	–

c1ccc2cc3c(cc2c1)-c1cccc2cccc-3c12 [benzo[k]fluoranthene]
[1]
Conditions	vapor or sublimation pressure [kPa]
384.2 K	1.63e-05
389.2 K	2.42e-05
394.1 K	3.62e-05
399.1 K	5.62e-05
404 K	8.86e-05
409 K	0.000136
411 K	0.000157
419 K	0.000383
424 K	0.000557

Conditions	Molar enthalpy of transition or fusion [kcal/mol]	Normal melting temperature [°C]
[1]	–	217.00
[2]	6.33	–

c1ccc2c(c1)ccc1cc3c(ccc4ccccc43)cc12 [dibenz[a,h]anthracene]
[1]
Conditions	vapor or sublimation pressure [kPa]
399.2 K	5.11e-06
404 K	5.53e-06
409.1 K	9.22e-06
414 K	1.39e-05
419.1 K	3.95e-05
424.2 K	5.45e-05
429.2 K	8.89e-05
434.2 K	0.000112
439.1 K	0.000174
444.1 K	0.00028
449.1 K	0.000369

Conditions	Molar enthalpy of transition or fusion [kcal/mol]	Normal melting temperature [°C]
[1]	–	269.50
[2]	5.86	–

c1ccc2c(c1)-c1ccc3ccc4cccc5cc-2c1c3c45 [indeno[1,2,3-cd]pyrene]
[1]
Conditions	vapor or sublimation pressure [kPa]
384.1 K	5.38e-06
389.1 K	7.96e-06
394.2 K	1.3e-05
399.2 K	2.19e-05
404.1 K	3.28e-05
409.1 K	5.33e-05
414.1 K	8.53e-05
419.1 K	0.000133
424.1 K	0.000201

Conditions	Molar enthalpy of transition or fusion [kcal/mol]	Normal melting temperature [°C]
[1]	–	162.00
[2]	5.47	–
